Data from patent US20240101570A1 (AMGEN INC., priority 2020, published 2024).

Key:
[1] = test system: HCT116 MTAP null cells; experiment: HCT116 MTAP null cell proliferation / viability (CellTiter-Glo, 6 days); assay type: cell-based; details: HCT116-MTAP null, 144 h, HCT116 MTAP null cells, 6 days, CellTiter-Glo; read-out: HCT-116 MTAP null IC50
Method in brief: (§1)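 IC50 values derive from sigmoidal dose-response fits, some with Hill slope fixed at −1 and top constrained to 100%, others from 4-parameter logistic models. They reflect CellTiter-Glo viability after 6 days of compound exposure at up to 10 or 50 μM.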

[2] = test system: HCT116 WT cells; experiment: HCT116 WT cell proliferation / viability (CellTiter-Glo, 6 days); assay type: cell-based; details: Homo sapiens, HCT-116, 144 h, HCT116 WT cells, 6 days, CellTiter-Glo; read-out: HCT-116 WT IC50
Method in brief: as §1

Row | Structure (SMILES) | IC50 [1] [nM] | IC50 [2] [nM]
1 | C[C@H]1OCc2c1c(N)nc1cnc(C(=O)N(Cc3ccc(OC(F)F)nn3)CC3CC3)cc21 [Example 424, (3R)-4-amino-N-(cyclopropylmethyl)-N-((6-(difluoromethoxy)-3-pyridazinyl)methyl)-3-methyl-1,3-dihydrofuro[3,4-c][1,7]naphthyridine-8-carboxamide] | 32 | 1340
2 | C[C@@H]1OCc2c1c(N)nc1cnc(C(=O)N(Cc3ccc(OC(F)F)nn3)CC3CC3)cc21 [Example 425, (3S)-4-amino-N-(cyclopropylmethyl)-N-((6-(difluoromethoxy)-3-pyridazinyl)methyl)-3-methyl-1,3-dihydrofuro[3,4-c][1,7]naphthyridine-8-carboxamide] | 2710 | > 50000
3 | Nc1nc2ccc(C(=O)N(Cc3ccc(OC(F)F)nn3)CC3CC3)cc2c2c1COC2 [Example 426, 4-amino-N-(cyclopropylmethyl)-N-((6-(difluoromethoxy)-3-pyridazinyl)methyl)-1,3-dihydrofuro[3,4-c]quinoline-8-carboxamide] | 96 | 4220
4 | CCN(Cc1ccc(C(F)(F)F)cn1)C(=O)c1cc2c(cc1F)nc(N)c1c2cnn1C [Example 427, 4-amino-N-ethyl-7-fluoro-3-methyl-N-((5-(trifluoromethyl)-2-pyridinyl)methyl)-3H-pyrazolo[3,4-c]quinoline-8-carboxamide] | 44 | 1680
5 | CCN(Cc1ccc(C(F)(F)F)cn1)C(=O)c1ccc2nc(N)c3ccncc3c2c1 [Example 428, 5-amino-N-ethyl-N-((5-(trifluoromethyl)-2-pyridinyl)methyl)benzo[c][2,6] naphthyridine-9-carboxamide] | 101 | 1250
6 | CN(Cc1ccc(C2=CCOCC2)cn1)C(=O)c1ccc2nc(N)c3c(c2c1)COC3 [Example 429, 4-amino-N-((5-(3,6-dihydro-2H-pyran-4-yl)-2-pyridinyl)methyl)-N-methyl-1,3-dihydrofuro[3,4-c]quinoline-8-carboxamide] | 1260 | 31800
7 | COC(=O)N1CC=C(c2ccc(CN(C)C(=O)c3ccc4nc(N)c5c(c4c3)COC5)nc2)CC1 [Example 430, methyl 6-((((4-amino-1,3-dihydrofuro[3,4-c]quinolin-8-yl)carbonyl)(methyl)amino)methyl)-3′,6′-dihydro[3,4′-bipyridine]-1′(2′H)-carboxylate] | 312 | 12800
8 | CC(C)N(Cc1ccc(C(F)(F)F)cn1)C(=O)c1ccc2[nH]c(=O)n3nccc3c2c1 [Example 431, 5-oxo-N-(2-propanyl)-N-((5-(trifluoromethyl)-2-pyridinyl)methyl)-5,6-dihydropyrazolo[1,5-c]quinazoline-9-carboxamide] | 14300 | 23500
9 | Cc1nn(C)c2c1c(N)nc1ccc(C(=O)N(Cc3ccc(C(F)(F)F)cn3)C(C)C)cc12 [Example 432, 4-amino-1,3-dimethyl-N-(2-propanyl)-N-((5-(trifluoromethyl)-2-pyridinyl)methyl)-1H-pyrazolo[4,3-c]quinoline-8-carboxamide] | 203 | 6390
10 | CC(C)N(Cc1cnc(C(F)(F)F)cn1)C(=O)c1ccc2nc(N)c3c(c2c1)CO[C@@H]3C [Example 434, (3R)-4-amino-3-methyl-N-(2-propanyl)-N-((5-(trifluoromethyl)-2-pyrazinyl)methyl)-1,3-dihydrofuro[3,4-c]quinoline-8-carboxamide] | 584 | 23900
11 | C[C@H](c1ncccn1)N(Cc1ccc(C(F)(F)F)cn1)C(=O)c1cc2c3c(c(N)nc2cc1F)COC3 [Example 435, 4-amino-7-fluoro-N-((1R)-1-(2-pyrimidinyl)ethyl)-N-((5-(trifluoromethyl)-2-pyridinyl)methyl)-1,3-dihydrofuro[3,4-c]quinoline-8-carboxamide] | 14 | 65
12 | C[C@H](c1ncccn1)N(Cc1ccc(C#N)cn1)C(=O)c1cc2c3c(c(N)nc2cc1F)COC3 [Example 436, 4-amino-N-((5-cyano-2-pyridinyl)methyl)-7-fluoro-N-((1R)-1-(2-pyrimidinyl)ethyl)-1,3-dihydrofuro[3,4-c]quinoline-8-carboxamide] | 29 | 187
13 | C[C@H](c1ncccc1F)N(Cc1ccc(Br)nn1)C(=O)c1cc2c3c(c(N)nc2cc1F)COC3 [Example 437, 4-amino-N-((6-bromo-3-pyridazinyl)methyl)-7-fluoro-N-((1R)-1-(3-fluoro-2-pyridinyl)ethyl)-1,3-dihydrofuro[3,4-c]quinoline-8-carboxamide] | 31 | 353
14 | C[C@H](c1ncccn1)N(Cc1ccc(C(F)F)cn1)C(=O)c1ccc2nc(N)c3c(c2c1)COC3 [Example 438, 4-amino-N-((5-(difluoromethyl)-2-pyridinyl)methyl)-N-((1R)-1-(2-pyrimidinyl)ethyl)-1,3-dihydrofuro[3,4-c]quinoline-8-carboxamide] | 12 | 187
15 | C[C@H](c1ncccn1)N(Cc1ccc(Cl)cn1)C(=O)c1ccc2nc(N)c3c(c2c1)COC3 [Example 439, 4-amino-N-((5-chloro-2-pyridinyl)methyl)-N-((1R)-1-(2-pyrimidinyl)ethyl)-1,3-dihydrofuro[3,4-c]quinoline-8-carboxamide] | 7 | 138
16 | C[C@@H](c1ncccn1)N(Cc1ccc(C(F)(F)F)nn1)C(=O)c1ccc2nc(N)c3c(c2c1)COC3 [Example 440, 4-amino-N-((1S)-1-(2-pyrimidinyl)ethyl)-N-((6-(trifluoromethyl)-3-pyridazinyl)methyl)-1,3-dihydrofuro[3,4-c]quinoline-8-carboxamide] | 461 | > 10000
17 | C[C@H](c1ncccn1)N(Cc1ccc(C(F)(F)F)nn1)C(=O)c1ccc2nc(N)c3c(c2c1)COC3 [Example 441, 4-amino-N-((1R)-1-(2-pyrimidinyl)ethyl)-N-((6-(trifluoromethyl)-3-pyridazinyl)methyl)-1,3-dihydrofuro[3,4-c]quinoline-8-carboxamide] | 12 | 204
18 | C[C@H](c1ncccc1F)N(Cc1ccc(C(F)(F)F)nn1)C(=O)c1ccc2nc(N)c3c(c2c1)COC3 [Example 442, 4-amino-N-((1R)-1-(3-fluoro-2-pyridinyl)ethyl)-N-((6-(trifluoromethyl)-3-pyridazinyl)methyl)-1,3-dihydrofuro[3,4-c]quinoline-8-carboxamide] | 9 | 177
19 | Nc1nc2ccc(C(=O)N(Cc3ccc(C(F)(F)F)cn3)C3CC3)cc2c2c1COC2 [Example 443, 4-amino-N-cyclopropyl-N-((5-(trifluoromethyl)-2-pyridinyl)methyl)-1,3-dihydrofuro[3,4-c]quinoline-8-carboxamide] | 127 | 7210
20 | COCC(COC)N(Cc1ccc(C(F)(F)F)cn1)C(=O)c1ccc2nc(N)c3c(c2c1)COC3 [Example 444, 4-amino-N-(1,3-dimethoxy-2-propanyl)-N-((5-(trifluoromethyl)-2-pyridinyl)methyl)-1,3-dihydrofuro[3,4-c]quinoline-8-carboxamide] | 13 | 343
21 | COC[C@@H](C)N(Cc1ccc(C(F)(F)F)cn1)C(=O)c1ccc2nc(N)c3c(c2c1)COC3 [Example 445, 4-amino-N-((2R)-1-methoxy-2-propanyl)-N-((5-(trifluoromethyl)-2-pyridinyl)methyl)-1,3-dihydrofuro[3,4-c]quinoline-8-carboxamide] | 8 | 153
22 | COc1ccc(CN(C(=O)c2ccc3nc(N)c4c(c3c2)COC4)[C@H](C)c2ncccn2)nn1 [Example 446, 4-amino-N-((6-methoxy-3-pyridazinyl)methyl)-N-((1R)-1-(2-pyrimidinyl)ethyl)-1,3-dihydrofuro[3,4-c]quinoline-8-carboxamide] | 12 | 237
23 | Nc1nc2ccc(C(=O)N(Cc3ccc(C(F)(F)F)cn3)C3CCCn4ncnc43)cc2c2c1COC2 [Example 447, 4-amino-N-((8R)-5,6,7,8-tetrahydro[1,2,4]triazolo[1,5-alpyridin-8-yl)-N-((5-(trifluoromethyl)-2-pyridinyl)methyl)-1,3-dihydrofuro[3,4-c]quinoline-8-carboxamide and 4-amino-N-((8S)-5,6,7,8-tetrahydro[1,2,4]triazolo[1,5-a]pyridin-8-yl)-N-((5-(trifluoromethyl)-2-pyridinyl)methyl)-1,3-dihydrofuro[3,4-c]quinoline-8-carboxamide] | 31 | 256
24 | CN(Cc1ccc(C(F)(F)F)cn1)C(=O)c1ccc2nc(N)c3c(c2c1)COC3 [Example 450, 4-amino-N-methyl-N-((5-(trifluoromethyl)-2-pyridinyl)methyl)-1,3-dihydrofuro[3,4-c]quinoline-8-carboxamide] | 159 | 11500
25 | CC(C)N(Cc1ccc(C(F)(F)F)cn1)C(=O)c1ccc2nc(N)c3c(c2c1)COC3 [Example 451, 4-amino-N-(2-propanyl)-N-((5-(trifluoromethyl)-2-pyridinyl)methyl)-1,3-dihydrofuro[3,4-c]quinoline-8-carboxamide] | 32 | 4380
26 | Nc1nc2ccc(C(=O)N(Cc3ccc(N4CCOCC4)nn3)CC3CC3)cc2c2c1COC2 [Example 452, 4-amino-N-(cyclopropylmethyl)-N-((6-(4-morpholinyl)-3-pyridazinyl)methyl)-1,3-dihydrofuro[3,4-c]quinoline-8-carboxamide] | 47 | 1570
27 | C[C@H](c1ncccn1)N(Cc1ccc(OCC(F)(F)F)nn1)C(=O)c1ccc2nc(N)c3c(c2c1)COC3 [Example 453, 4-amino-N-((1R)-1-(2-pyrimidinyl)ethyl)-N-((6-(2,2,2-trifluoroethoxy)-3-pyridazinyl)methyl)-1,3-dihydrofuro[3,4-c]quinoline-8-carboxamide] | 35 | 543
